Values of other authors, collected in EP3520802A1, “PROCESS FOR EXTRACTING CURCUMINOIDS” (EFESON - Chemical Research & Engineering Development, priority 2018, dated 2019).

Conditions: non-clustered curcuminoid, usual value stated as background

Structure (SMILES): COc1cc(/C=C/C(=O)CC(=O)/C=C/c2ccc(O)c(OC)c2)ccc1O [Curcumin I, curcumin]
- logP: around 2.90
